{
  "source": "patent US6939879B2",
  "about": "“Use of R (+)-α-(2,3-dimethoxyphenyl)-1-[2-(4-fluorophenyl)ethyl]-4-piperidinemethanol for the treatment of substance induced insomnia” (Aventis Pharmaceuticals Inc., priority 1998, dated 2005)",
  "key": {"healthy subjects [1]": {"tested_on": "healthy subjects", "test": "Single oral dose in healthy subjects, sedation (Example 4A)", "type": "in vivo, human", "description": "Forty percent of the subjects receiving the 20 mg dose (2 out of 5) and sixty percent of the subjects receiving the 10 mg dose (3 out of 5) experienced mild to moderate sedation. […]"}, "[2]": {"tested_on": "anaesthetized newborn Sprague Dawley rats", "test": "Depression of genioglossal EMG induced by L-Tryptophan and Pargyline", "type": "in vivo, rat", "details": "for prevention of depression of the amplitude of GG inspiratory discharges by L-Trp+Prg: five newborn rats", "description": "(§1) Intraperitoneal application of L-Tryptophan (10 mg/kg) and Pargyline (50 mg/kg) to anaesthetized newborn rats depressed the amplitude of the inspiratory discharges of the genioglossal muscle and induced obstructive apneas (OA).\n(§2) Experiments were carried out on newborn Sprague Dawley rats from Iffa Credo breeding center. The animals were anaesthetized by intraperitoneal injection of low doses of sodium pentobarbitone (7-10 mg/kg), kept lying (dorsal cubitus) on a warming blanket and were spontaneously ventilating.\n(§3) The EMG activity of the genioglossal muscles and the diaphragm were recorded with fine insulated wires (bipolar recordings) inserted within the muscles, filtered (100-3,000 Hz), amplified (×5-10,000) and integrated (time constant 50 ms). The rib cage movements were recorded via a captor gently touching the lower ribs and/or the abdominal wall. The air flow changes resulting from the respiratory chest movements were recorded via a facial mask and a highly sensitive pressure recorder.\nThen, the animal received an intraperitoneal injection of L-Tryptophan plus Pargyline (“L-Trp+Parg”) 10 mg/kg and 50 mg/kg, respectively, and the changes in EMG amplitudes were checked every 10 minutes and were expressed as % of control values."}, "healthy subjects [3]": {"tested_on": "healthy subjects", "test": "Drowsiness in healthy subjects, 3-72 mg doses (Example 4D)", "type": "in vivo, human", "procedure": "D) In healthy subjects, the COMPOUND was administered in 3 mg (n=4), 9 mg (n=4), 18 mg (n=4), 36 mg (n=4) and 72 mg (n=4) doses along with the placebo (n=5) wherein “n” is the number of subjects."}, "healthy subjects [4]": {"tested_on": "healthy subjects", "test": "Drowsiness in healthy subjects after oral doses (Example 4C)", "type": "in vivo, human", "details": "for Drowsiness, % of subjects / Drowsiness, n of subjects: n = 4; for rating of the drowsiness: oral", "from_the_text": "The following data were reported."}, "[5]": {"tested_on": "anaesthetized newborn Sprague Dawley rats", "test": "Occurrence of obstructive apnea induced by L-Tryptophan and Pargyline injection", "type": "in vivo, rat", "description": "as §1, §2, §3"}, "[6]": {"tested_on": "patients diagnosed with schizophrenia", "test": "Insomnia and somnolence reported by patients with schizophrenia, twice daily oral dosing (Example 4B)", "type": "in vivo, human", "description": "Forty percent of the subjects receiving the 20 mg dose (2 out of 5) and sixty percent of the subjects receiving the 10 mg dose (3 out of 5) experienced mild to moderate sedation. […] The following data were reported."}, "[7]": {"details": "pre-treatment 0.1 mg/kg intraperitoneal, ten newborn rats"}, "[8]": {"details": "pre-treatment 0.1 mg/kg, L-Trp+Parg 10 min later"}, "[9]": {"details": "pre-treatment 1 mg/kg, ten rats"}},
  "data": [
    {"smiles": "COc1cccc([C@H](O)C2CCN(CCc3ccc(F)cc3)CC2)c1OC", "note": "[COMPOUND, R-(+)-α-(2,3-Dimethoxyphenyl)-1-[2-(4-fluorophenyl)ethyl]-4-piperidinemethanol]", "values": [
      {"measurement": "subjects who experienced mild to moderate sedation", "setting": "healthy subjects [1]; single 10 mg oral dose", "value": "3 out of 5"},
      {"measurement": "subjects who experienced mild to moderate sedation", "setting": "healthy subjects [1]; single 20 mg oral dose", "value": "2 out of 5"},
      {"measurement": "depression of the mean GG discharge after L-Trp+Parg injection", "setting": "[2]; [7]", "value": "30-50%"},
      {"measurement": "prevention of depression of genioglossal (GG) discharge induced by L-Trp+Parg", "setting": "[2]; [7]", "value": "did not prevent"},
      {"measurement": "prevention of depression of genioglossal (GG) discharge induced by L-Trp+Parg", "setting": "[2]; pre-treatment 1 mg/kg intraperitoneal, ten newborn rats", "value": "efficient in preventing the GG depression"},
      {"measurement": "prevention of depression of genioglossal (GG) discharge induced by L-Trp+Parg", "setting": "[2]; pre-treatment 3 mg/kg intraperitoneal, ten newborn rats", "value": "confirmed the efficiency"},
      {"measurement": "drowsiness reported", "setting": "healthy subjects [3]; 3 mg, 9 mg, 18 mg, 36 mg doses (n=4 each)", "value": "Only the group receiving the 72 mg dose reported drowsiness"},
      {"measurement": "number of subjects that reported drowsiness", "setting": "healthy subjects [3]; 72 mg dose (n=4)", "value": 3},
      {"measurement": "Drowsiness, % of subjects", "setting": "healthy subjects [4]; 9 mg oral", "value": 50, "unit": "%"},
      {"measurement": "Drowsiness, n of subjects", "setting": "healthy subjects [4]; 9 mg oral", "value": "n = 2"},
      {"measurement": "Drowsiness, % of subjects", "setting": "healthy subjects [4]; 18 mg oral", "value": 100, "unit": "%"},
      {"measurement": "Drowsiness, n of subjects", "setting": "healthy subjects [4]; 18 mg oral", "value": "n = 4"},
      {"measurement": "Drowsiness, % of subjects", "setting": "healthy subjects [4]; 36 mg oral", "value": 100, "unit": "%"},
      {"measurement": "Drowsiness, n of subjects", "setting": "healthy subjects [4]; 36 mg oral", "value": "n = 4"},
      {"measurement": "rating of the drowsiness", "setting": "healthy subjects [4]; 72 mg and above", "value": "moderate to severe"},
      {"measurement": "Drowsiness, % of subjects", "setting": "healthy subjects [4]; 72 mg oral", "value": 75, "unit": "%"},
      {"measurement": "Drowsiness, n of subjects", "setting": "healthy subjects [4]; 72 mg oral", "value": "n = 3"},
      {"measurement": "Drowsiness, % of subjects", "setting": "healthy subjects [4]; 108 mg oral", "value": 100, "unit": "%"},
      {"measurement": "Drowsiness, n of subjects", "setting": "healthy subjects [4]; 108 mg oral", "value": "n = 4"},
      {"measurement": "Drowsiness, % of subjects", "setting": "healthy subjects [4]; 138 mg oral", "value": 100, "unit": "%"},
      {"measurement": "Drowsiness, n of subjects", "setting": "healthy subjects [4]; 138 mg oral", "value": "n = 4"},
      {"measurement": "rating of the drowsiness", "setting": "healthy subjects [4]; doses below 72 mg", "value": "mild or moderate"},
      {"measurement": "animals that eventually died of respiratory distress", "setting": "[5]; [8]", "value": "4 of the 10"},
      {"measurement": "newborn rats in which L-Trp+Parg injection induced OAs", "setting": "[5]; [8]", "value": "9 of 10"},
      {"measurement": "newborn rats that did not present short lasting OAs at all", "setting": "[5]; pre-treatment 1 mg/kg", "value": "Five out of ten"},
      {"measurement": "newborn rats which displayed OAs", "setting": "[5]; pre-treatment 1 mg/kg", "value": "5 of 10"},
      {"measurement": "animals with infrequent OAs (less than 5 short lasting OAs in 60 minutes)", "setting": "[5]; pre-treatment 1 mg/kg, among the 5 of 10 with OAs", "value": 2},
      {"measurement": "peak frequency of occurrence of short lasting OAs (mean curve)", "setting": "[5]; pre-treatment 1 mg/kg, between 20-40 min after the injection, significantly less than in the 0.1 mg/kg sample", "value": 4, "unit": "OAs per 10 minute period"},
      {"measurement": "newborn rats with long lasting OAs", "setting": "[5]; [9]", "value": "one"},
      {"measurement": "survival to L-Trp+Parg injection", "setting": "[5]; [9]", "value": "all animals survived"},
      {"measurement": "treated rats with a total of less than 3 short lasting OAs", "setting": "[5]; pre-treatment 3 mg/kg", "value": "3 of 10"},
      {"measurement": "treated rats with frequent short lasting OAs", "setting": "[5]; pre-treatment 3 mg/kg", "value": "2 of 10"},
      {"measurement": "treated rats with no short lasting OAs", "setting": "[5]; pre-treatment 3 mg/kg", "value": "5 of 10"},
      {"measurement": "survival to L-Trp+Parg injection", "setting": "[5]; pre-treatment 3 mg/kg, ten rats", "value": "all survived"},
      {"measurement": "Insomnia, % of subjects", "setting": "[6]; 10 mg (5 mg twice daily) oral", "value": "N = 0; 0%"},
      {"measurement": "Insomnia, N (number of subjects that reported the effect)", "setting": "[6]; 10 mg (5 mg twice daily) oral", "value": "N = 0; 0%"},
      {"measurement": "Somnolence, % of subjects", "setting": "[6]; 10 mg (5 mg twice daily) oral", "value": 20, "unit": "%"},
      {"measurement": "Somnolence, N (number of subjects that reported the effect)", "setting": "[6]; 10 mg (5 mg twice daily) oral", "value": 3},
      {"measurement": "Insomnia, % of subjects", "setting": "[6]; 20 mg (10 mg twice daily) oral", "value": 21.4, "unit": "%"},
      {"measurement": "Insomnia, N (number of subjects that reported the effect)", "setting": "[6]; 20 mg (10 mg twice daily) oral", "value": "N = 3:"},
      {"measurement": "Somnolence, % of subjects", "setting": "[6]; 20 mg (10 mg twice daily) oral", "value": 15.4, "unit": "%"},
      {"measurement": "Somnolence, N (number of subjects that reported the effect)", "setting": "[6]; 20 mg (10 mg twice daily) oral", "value": "N = 1;"},
      {"measurement": "Insomnia, % of subjects", "setting": "[6]; 40 mg (20 mg twice daily) oral", "value": 23.1, "unit": "%"},
      {"measurement": "Insomnia, N (number of subjects that reported the effect)", "setting": "[6]; 40 mg (20 mg twice daily) oral", "value": "N = 3;"},
      {"measurement": "Somnolence, % of subjects", "setting": "[6]; 40 mg (20 mg twice daily) oral", "value": 15.4, "unit": "%"},
      {"measurement": "Somnolence, N (number of subjects that reported the effect)", "setting": "[6]; 40 mg (20 mg twice daily) oral", "value": "N = 2;"}
    ]},
    {"smiles": "Cn1c(=O)c2[nH]cnc2n(C)c1=O", "note": "[theophylline, reference compound]", "values": [
      {"measurement": "prevention of depression of the amplitude of GG inspiratory discharges by L-Trp+Prg", "setting": "[2]; pre-treatment 10 mg/kg", "value": "not prevented"},
      {"measurement": "prevention of depression of the amplitude of GG inspiratory discharges by L-Trp+Prg", "setting": "[2]; pre-treatment 30 mg/kg", "value": "not prevented"},
      {"measurement": "prevention of induction of OAs after L-Trp+Prg injection", "setting": "[5]; pre-treatment 10 mg/kg", "value": "not prevented"},
      {"measurement": "prevention of induction of OAs after L-Trp+Prg injection", "setting": "[5]; pre-treatment 30 mg/kg", "value": "not prevented"}
    ]}
  ]
}
